Test results as given in ChEMBL document CHEMBL3864140, “Melanogenesis inhibitory activity of a 7-O-9'-linked neolignan from Alpinia galanga fruit” (Bioorg Med Chem, 2016).

Tests used:
[1] = Antimelanogenic activity in theophylline-stimulated mouse B16-4A5 cells assessed as inhibition of melanogenesis after 72 hrs relative to control; type: functional, cell-based
[2] = Cytotoxicity against theophylline-stimulated mouse B16-4A5 cells assessed as cell viability at 10 uM after 72 hrs by MTT assay relative to control; type: toxicity; settings: theophylline-stimulated B16-4A5 cells, read-out: Activity
[3] = Cytotoxicity against theophylline-stimulated mouse B16-4A5 cells assessed as cell viability at 1 uM after 72 hrs by MTT assay relative to control; type: toxicity; settings: theophylline-stimulated B16-4A5 cells, read-out: Activity
[4] = Antimelanogenic activity in theophylline-stimulated mouse B16-4A5 cells assessed as inhibition of melanogenesis at 3 uM after 72 hrs relative to control; type: functional; settings: B16-4A5, 72 h
[5] = Cytotoxicity against theophylline-stimulated mouse B16-4A5 cells assessed as cell viability at 0.3 uM after 72 hrs by MTT assay relative to control; type: toxicity; settings: theophylline-stimulated B16-4A5 cells, read-out: Activity
[6] = Cytotoxicity against theophylline-stimulated mouse B16-4A5 cells assessed as cell viability at 3 uM after 72 hrs by MTT assay relative to control; type: toxicity; settings: theophylline-stimulated B16-4A5 cells, read-out: Activity
[7] = Antimelanogenic activity in theophylline-stimulated mouse B16-4A5 cells assessed as inhibition of melanogenesis at 0.3 uM after 72 hrs relative to control; type: functional; settings: B16-4A5, 72 h
[8] = Antimelanogenic activity in theophylline-stimulated mouse B16-4A5 cells assessed as inhibition of melanogenesis at 10 uM after 72 hrs relative to control; type: functional; settings: B16-4A5, 72 h
[9] = Antimelanogenic activity in theophylline-stimulated mouse B16-4A5 cells assessed as inhibition of melanogenesis at 1 uM after 72 hrs relative to control; type: functional; settings: B16-4A5, 72 h
cells [10] = settings: Mus musculus, B16-4A5, 72 h, read-out: INH
cells [11] = settings: Mus musculus, B16-4A5, 72 h, read-out: INH; remark: listed apart in the source
Description: Antimelanogenic activity in theophylline-stimulated mouse B16-4A5 cells assessed as inhibition of melanogenesis at 30 uM after 72 hrs relative to control

[12] = Cytotoxicity against theophylline-stimulated mouse B16-4A5 cells assessed as cell viability at 100 uM after 72 hrs by MTT assay relative to control; type: toxicity; settings: theophylline-stimulated B16-4A5 cells, read-out: Activity
[13] = Cytotoxicity against theophylline-stimulated mouse B16-4A5 cells assessed as cell viability at 30 uM after 72 hrs by MTT assay relative to control; type: toxicity; settings: theophylline-stimulated B16-4A5 cells, read-out: Activity

Compound	IC50 [1] [µM]	viability at 72 h, 10 µM [2] [%]	viability at 72 h, 1 µM [3] [%]	inhibition at 3 µM [4] [%]	viability at 72 h, 0.3 µM [5] [%]	viability at 72 h, 3 µM [6] [%]	inhibition at 0.3 µM [7] [%]	inhibition at 10 µM [8] [%]	inhibition at 1 µM [9] [%]	inhibition at 100 µM (cells [10]) [%]	inhibition at 30 µM (cells [11]) [%]	viability at 72 h, 100 µM [12] [%]	viability at 72 h, 30 µM [13] [%]
C=C[C@@H](OC(C)=O)c1ccc(OC(C)=O)cc1	4.5	88.7	98.8	36.8	96.6	95.2	8.4	69.2	21.2	–	–	–	–
COC/C=C/c1ccc(O)cc1	19.5	104	–	18.2	–	109	–	25.1	–	81.7	56.9	107	93.6
C=C[C@H](O)c1ccc(OC(C)=O)cc1	88.5	97.2	–	-6.7	–	87.9	–	-0.4	–	56.7	14.9	114	101
O=C/C=C/c1ccc(O)cc1 [p-HYDROXYCINNAMALDEHYDE]	18.3	108	–	8.9	–	103	–	12.8	–	104	67.4	66.8	94.3
OC/C=C/c1ccc(O)cc1	> 100	98.4	–	-3.4	–	98.9	–	-2.8	–	46.9	35.8	110	116
C=C[C@@H](OC/C=C/c1ccc(O)cc1)c1ccc(O)cc1	3.2	93.9	107	47.7	106	103	32.9	80.2	47.1	–	–	–	–
CC[C@H](OC(C)=O)c1ccc(OC(C)=O)cc1	10.5	105	–	41.6	–	106	–	44.5	–	105	74.1	94.5	96.5
COc1cc(/C=C/CO)ccc1O [CONIFERYL ALCOHOL]	16.1	98.2	–	35.9	–	98.9	–	44.5	–	-3	64.2	33.1	88
O=Cc1ccc(O)cc1 [4-HYDROXYBENZALDEHYDE]	–	103	–	11.3	–	107	–	4.2	–	3.5	7.9	103	107
COc1cc(/C=C/C=O)ccc1O [CONIFERYL ALDEHYDE]	15.3	85.8	–	17	–	101	–	23.7	–	87.7	100	44.7	74.2
COc1cc(C=O)ccc1O [VANILLIN]	49.2	104	–	-8.4	–	108	–	8.4	–	96.1	49.7	106	104
CCC(=O)c1ccc(O)cc1 [PAROXYPROPIONE]	–	116	–	4.1	–	111	–	-3.6	–	-3.6	-1.9	125	117
CC(=O)OC/C=C/c1ccc(O)cc1	–	100	–	4.1	–	99.2	–	0	–	-13.4	-3	90.1	96.1
C=C[C@H](O)c1ccc(OC(C)=O)c(OC)c1	–	114	–	5	–	104	–	10.9	–	22.9	11.7	124	113
CC(=O)Oc1ccc(/C=C/CO)cc1	29.4	85.8	–	10.7	–	92.9	–	18	–	94.8	96.9	44.9	65.5
COc1cc(/C=C/CO)ccc1OC(C)=O	16.9	85.9	–	5.5	–	90.6	–	12.9	–	63.3	102	41.7	60.1
